# Like-named read-outs stand apart in the source and are kept apart here.
# Assays:
# canine TRPM8 [1] = biological target: T1, canine TRPM8 (Canis lupus familiaris, UniProt Q1A7N1); assay: In Vitro Canine TRPM8 Functional Assay (Ca2+ fluorescence, icilin activation); assay type: cell-based; conditions: for IC50: HEK293 cells stably expressing canine TRPM8, icilin activation, eight-point dose-response, read-out: IC50; for % Inh @ 0.2 (μM) / inhibition at 0.2 µM: compound at 0.2 μM; for inhibition at 0.2 µM: read-out: % Inh @ 0.2
# T1 sequence (Q1A7N1 1-1104): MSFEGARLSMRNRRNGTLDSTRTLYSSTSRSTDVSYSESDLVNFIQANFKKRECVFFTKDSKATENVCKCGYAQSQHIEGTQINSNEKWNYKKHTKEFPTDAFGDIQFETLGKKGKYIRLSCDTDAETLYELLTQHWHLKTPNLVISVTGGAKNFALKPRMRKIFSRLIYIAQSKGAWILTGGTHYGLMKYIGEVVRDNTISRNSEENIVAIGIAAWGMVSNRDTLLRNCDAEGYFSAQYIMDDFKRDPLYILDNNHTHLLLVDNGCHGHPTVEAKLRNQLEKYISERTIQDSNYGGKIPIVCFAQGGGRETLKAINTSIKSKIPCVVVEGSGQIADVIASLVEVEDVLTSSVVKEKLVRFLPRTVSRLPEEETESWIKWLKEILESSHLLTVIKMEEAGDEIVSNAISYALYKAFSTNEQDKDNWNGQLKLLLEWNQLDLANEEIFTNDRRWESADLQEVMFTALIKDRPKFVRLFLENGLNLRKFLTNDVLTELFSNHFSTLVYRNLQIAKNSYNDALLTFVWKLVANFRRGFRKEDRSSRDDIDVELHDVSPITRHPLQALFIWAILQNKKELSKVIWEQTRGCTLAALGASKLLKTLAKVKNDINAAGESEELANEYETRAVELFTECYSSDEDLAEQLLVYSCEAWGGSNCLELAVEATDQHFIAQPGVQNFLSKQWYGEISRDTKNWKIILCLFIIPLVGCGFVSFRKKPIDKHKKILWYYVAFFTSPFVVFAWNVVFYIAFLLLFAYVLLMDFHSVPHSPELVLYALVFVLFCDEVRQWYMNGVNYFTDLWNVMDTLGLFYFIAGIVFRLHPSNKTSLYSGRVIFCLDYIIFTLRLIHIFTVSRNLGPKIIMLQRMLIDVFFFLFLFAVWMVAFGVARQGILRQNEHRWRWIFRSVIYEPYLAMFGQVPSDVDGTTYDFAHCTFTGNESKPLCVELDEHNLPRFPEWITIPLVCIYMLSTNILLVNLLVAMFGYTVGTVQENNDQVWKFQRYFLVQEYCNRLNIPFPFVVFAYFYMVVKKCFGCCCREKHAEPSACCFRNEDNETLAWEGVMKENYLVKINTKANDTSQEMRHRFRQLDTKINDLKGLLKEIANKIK
# Procedure, shortened: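 Cells (HEK293, stable canine TRPM8) are seeded 24 h before assay. They are then dye-loaded with Calcium 3 at 37 °C followed by room temperature. Compound is added and monitored for 5 min, after which icilin (~80% maximal response) is added.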
# Male Sprague Dawley rats [2] = assay: Inhibition of Icilin-Induced "Wet-Dog" Shakes in Rats; assay type: in vivo, rat; conditions: Na salt form; for % Inhibition: HPbCD
# Description: Male Sprague Dawley rats (220-450 g, Charles River Labs, n=6-9/treatment) were used to evaluate the ability of selected compounds of the formula (I) to block icilin-induced “wet-dog” shakes (WDS). Compounds of the formula (I) were administered in an appropriate vehicle, such as hydroxypropyl-β-cyclodextrin (HPβCD), methocellulose, 10% Solutol, or H2O, or the like, by the appropriate route, i.p. or p.o., 30-120 minutes before icilin. Icilin was administered in PEG-400 or 10% solutol/H2O, at 1.0 or 3.0 mg/kg, i.p. and spontaneous “wet-dog” shakes were counted 10-20 minutes post-icilin. Results are presented as a percent inhibition of shakes, which was calculated as [1-(test compound WDS count/vehicle WDS count)]×100.
# Male Sprague Dawley rats [3] = assay: Chronic Constriction Injury (CCI)-Induced Model of Neuropathic Pain, Acetone-Induced Hypersensitivity; assay type: in vivo, rat; conditions: Rattus norvegicus, po, Na salt form; for inhibition in vivo at 30 mg/kg: 30 mg/kg p.o.; for inhibition in vivo at 10 mg/kg: 10 mg/kg p.o.
# Excerpt: Male Sprague Dawley rats (225-450 g; n=5-8/treatment) were used to evaluate the ability of selected compounds of the formula (I) to reverse CCI-induced cold hypersensitivity. Four loose ligatures of 4-0 chromic gut were surgically placed around the left sciatic nerve under inhalation anesthesia as described by Bennett et al (Bennett G J, Xie Y K. Pain 1988, 33(1): 87-107). Fourteen to 35 days following CCI surgery, subjects were placed in elevated observation chambers containing wire mesh floors and five applications of acetone (0.05 mL/application separated by approximately 5 minutes) were spritzed onto the plantar surface of the paw using a multidose syringe. An abrupt withdrawal or lifting of the paw was considered a positive response. The number of positive responses was recorded for each rat over the five trials. Following baseline withdrawal determinations, compounds of formula (I) are administered in an appropriate vehicle, such as hydroxypropyl-β-cyclodextrin (HP β CD), methylcellulose, Methocel, 10% Solutol, or H2O, or the like, by the appropriate route, i.p. or p.o. […] Results are presented as a percent inhibition of […], which was calculated for each subject as [1−(test compound withdrawals/pre-test withdrawals)]×100 and then averaged by treatment.
# canine TRPM8 [4] = biological target: T1, canine TRPM8; assay: TRPM8 Patch Clamp Assays (whole-cell, menthol or cold activation); assay type: cell-based; conditions: cold stimulation
# Description: For patch clamp experiments, HEK293 cells are stably transfected with canine TRPM8 and cultured in DMEM supplemented with 10% fetal bovine serum, 100 units/ml penicillin, 100 μg/ml streptomycin and 1 mg/ml G418. Cells are maintained at 37° C. and in 5% CO2.
# The extracellular solution contains (in mM): NaCl, 132; EGTA, 1; KCl, 5.4; MgCl2, 0.8; HEPES, 10; glucose, 10; pH=7.4. Recordings are performed using the conventional whole-cell patch clamp technique, 1-2 days after plating cells onto glass coverslips at densities appropriate for single cell recording. Currents are amplified by a patch clamp amplifier and filtered at 2 kHz (Axopatch 200B, Molecular Devices, Union City, Calif.). Menthol (100 μM) is applied to the cell at 0.5 ml/min via a gravity-fed perfusion system. Recordings involving menthol activation are performed at 22° C.
# In experiments where temperatures are varied, temperature ramps are generated by cooling the perfusate in an in-line cooler (Model SC-20, Warner Instruments, Hamden, Conn.) controlled by a temperature controller (Model CL-100, Warner Instruments). The temperature in the vicinity of the recorded cell is measured with a custom-made miniature thermo-microprobe connected to a monitoring thermometer (Model TH-8, Physitemp, Clifton, N.J.), and sampled using Digidata 1322A and pClamp 9.0 (Molecular Devices), as are the currents concurrently measured in the whole-cell patch clamp mode. The current is continuously sampled (at 100 Hz) at a holding potential of −60 mV.
# Compounds of the formula (I) are diluted from 10 mM DMSO stocks (stored at −20° C.) into an extracellular solution either containing 100 μM menthol or subjected to cooling. Increasing concentrations of a compound are applied to a cell in a cumulative manner and concentration-dependent responses are measured after steady-state activation is achieved by either 100 μM menthol or cooling to 10° C. A saturating concentration of a reference antagonist is applied at the end of an experiment (either in the presence of 100 μM menthol or 10° C. temperature) to establish the baseline from which all the other measurements are subtracted.
# Percentage inhibition by a compound is calculated as follows:
# 100×(1−Icomp/I0); where Icomp and I0 are steady-state current amplitudes in either the presence or absence of a concentration of compounds of the formula (I).
# [5] = canine TRPM8, icilin activation
# [6] = dose 30 p.o., 30 min pre-icilin
# [7] = dose 30 p.o., 60 min pre-icilin
# [8] = 2 h, Water, pretreatment 2 hr, read-out: Percent Inhibition
# [9] = 3 h, Water, pretreatment 3 hr, read-out: Percent Inhibition
# [10] = 4 h, Water, pretreatment 4 hr, read-out: Percent Inhibition
# [11] = dose 10 p.o., 60 min pre-icilin
smiles,measurement,setting,value
O=S(=O)(c1ccc(-c2nnn[nH]2)cc1)N(CCCC(F)(F)F)c1sc2ccccc2c1Br [Compound 429],IC50,canine TRPM8 [1],17 nM
same,% Inh @ 0.2 (μM),canine TRPM8 [1]; [5],93%
same,% Inhibition,Male Sprague Dawley rats [2]; [6],41%
same,% Inhibition,Male Sprague Dawley rats [2]; [7],36%
O=C(O)c1ccc(S(=O)(=O)N(CCC2CC2)c2sc3ccccc3c2Cl)cc1 [Compound 479],IC50,canine TRPM8 [1],8 nM
same,% Inh @ 0.2 (μM),canine TRPM8 [1]; [5],100%
same,% Inhibition,Male Sprague Dawley rats [2]; [7],77%
"O=C(O)c1ccc(S(=O)(=O)N(CCCCC(F)(F)F)c2sc3ccccc3c2Br)cc1 [Compound 395, N-(3-Bromo-benzo[b]thiophen-2-yl)-N-(5,5,5-trifluoro-pentyl)-4-carboxy-benzenesulfonamide]",IC50,canine TRPM8 [1],3 nM
same,inhibition at 0.2 µM,canine TRPM8 [1]; [5],101%
same,ED50,"Male Sprague Dawley rats [2]; Rattus norvegicus, po, 1 h, Water, 60 min pre-icilin",7.6 mg/kg
same,inhibition in vivo at 30 mg/kg,Male Sprague Dawley rats [3]; [8],23%
"CCCCN(c1sc2ccccc2c1C)S(=O)(=O)c1ccc(C(=O)[O-])cc1.[Na+] [Compound 398, Sodium, N-(Butyl)-N-(3-methylbenzo[b]thiophen-2-yl)-4-carboxy-benzenesulfonamide]",IC50,canine TRPM8 [1],6 nM
same,% Inh @ 0.2 (μM),canine TRPM8 [1]; [5],101%
same,% Inhibition,Male Sprague Dawley rats [2]; [6],7%
"Cc1c(N(CCC(F)(F)F)S(=O)(=O)c2ccc(C(=O)[O-])cc2)sc2ccccc12.[Na+] [Compound 409, Sodium, N-(3-Methylbenzo[b]thiophen-2-yl)-N-(3,3,3-trifluoro-propyl)-4-carboxy-benzenesulfonamide]",IC50,canine TRPM8 [1],10 nM
same,% Inh @ 0.2 (μM),canine TRPM8 [1]; [5],101%
same,% Inhibition,Male Sprague Dawley rats [2]; [6],16%
"Cc1c(N(Cc2ccc(F)c(Cl)c2)S(=O)(=O)c2ccc(C(=O)O)cc2)sc2ccccc12 [Compound 489, N-(3-Methyl-benzo[b]thiophen-2-yl)-N-(4-fluoro-3-chloro-benzyl)-4-carboxy-benzenesulfonamide]",IC50,canine TRPM8 [1],0.6 nM
same,inhibition at 0.2 µM,canine TRPM8 [1]; [5],101%
same,inhibition in vivo at 30 mg/kg,Male Sprague Dawley rats [3]; [9],86%
same,inhibition in vivo at 10 mg/kg,Male Sprague Dawley rats [3]; [10],13%
same,inhibition in vivo at 17.8 mg/kg,"Male Sprague Dawley rats [3]; 4 h, 17.8 mg/kg p.o., Water, pretreatment 4 hr, read-out: Percent Inhibition",60%
same,inhibition in vivo at 30 mg/kg,Male Sprague Dawley rats [3]; [10],57%
same,inhibition in vivo at 56 mg/kg,"Male Sprague Dawley rats [3]; 4 h, 56 mg/kg p.o., Water, pretreatment 4 hr, read-out: Percent Inhibition",70%
same,ED50,"Male Sprague Dawley rats [3]; Water, pretreatment 4 hr",23 mg/kg
"CC(C)(O)c1c(N(CCCCC(F)(F)F)S(=O)(=O)c2ccc(C(=O)[O-])cc2)sc2ccccc12.[Na+] [Compound 658, Sodium, N-(3-(1-Hydroxy-1-methyl-ethyl)-benzo[b]thiophen-2-yl)-N-(5,5,5-trifluoro-pentyl)-4-carboxy-benzenesulfonamide]",IC50,canine TRPM8 [1],4.3 nM
same,% Inh @ 0.2 (μM),canine TRPM8 [1]; [5],101%
same,% Inhibition,Male Sprague Dawley rats [2]; [11],63%
"O=C(O)c1ccc(S(=O)(=O)N(Cc2ccc(F)c(C(F)(F)F)c2)c2sc3ccccc3c2Br)cc1 [Compound 292, N-(3-Bromo-benzo[b]thiophen-2-yl)-N-(4-fluoro-3-trifluoromethyl-benzyl)-4-carboxy-benzenesulfonamide]",IC50,canine TRPM8 [1],0.8 nM
same,inhibition at 0.2 µM,canine TRPM8 [1]; [5],98%
same,inhibition at 0.5 µM,"canine TRPM8 [1]; compound at 0.5 μM, canine TRPM8, icilin activation, read-out: % Inh @ 0.5",100%
same,inhibition in vivo at 30 mg/kg,Male Sprague Dawley rats [3]; [8],60%
same,inhibition in vivo at 3 mg/kg,"Male Sprague Dawley rats [3]; 3 h, 3 mg/kg p.o., Water, pretreatment 3 hr, read-out: Percent Inhibition",7%
same,inhibition in vivo at 10 mg/kg,Male Sprague Dawley rats [3]; [9],16%
same,inhibition in vivo at 30 mg/kg,Male Sprague Dawley rats [3]; [9],21%
same,inhibition in vivo at 100 mg/kg,"Male Sprague Dawley rats [3]; 3 h, 100 mg/kg p.o., Water, pretreatment 3 hr, read-out: Percent Inhibition",67%
same,ED50,"Male Sprague Dawley rats [3]; Water, pretreatment 3 hr",70 mg/kg
"CC(C)(O)c1c(N(CCC2CC2)S(=O)(=O)c2ccc(C(=O)[O-])cc2)sc2ccccc12.[Na+] [Compound 657, Sodium, N-(2-Cyclopropyl-ethyl)-N-(3-(1-hydroxy-1-methyl-ethyl)-benzo[b]thiophen-2-yl)-4-carboxy-benzenesulfonamide]",IC50,canine TRPM8 [1],7.5 nM
same,% Inh @ 0.2 (μM),canine TRPM8 [1]; [5],101%
same,% Inhibition,Male Sprague Dawley rats [2]; [11],32%
"Cc1c(N(Cc2ccc(C(F)(F)F)c(F)c2)S(=O)(=O)c2ccc(C(=O)O)cc2)sc2ccccc12 [Compound 497, N-(3-Methyl-benzo[b]thiophen-2-yl)-N-(3-fluoro-4-trifluoromethyl-benzyl)-4-carboxy-benzenesulfonamide]",IC50,canine TRPM8 [1],0.4 nM
same,inhibition at 0.2 µM,canine TRPM8 [1]; [5],101%
same,inhibition in vivo at 30 mg/kg,Male Sprague Dawley rats [3]; [10],60%
"CCS(=O)(=O)N(CCN1CCOCC1)c1sc2ccccc2c1C(C)O (centres unmarked) [Compound 284, N-(3-(1-Hydroxyethyl)benzo[b]thiophen-2-yl)-N-(2-morpholinoethyl)-ethanesulfonamide]",inhibition at 0.2 µM,canine TRPM8 [1]; [5],15%
same,IC50,canine TRPM8 [4],8 nM
same,inhibition at 0.003 µM,canine TRPM8 [4]; 0.003 μM,24%
same,inhibition at 0.01 µM,canine TRPM8 [4]; 0.01 μM,71%
"Cc1c(N(Cc2ccc(F)c(F)c2)S(=O)(=O)c2ccc(C(=O)O)cc2)sc2ccccc12 [Compound 488, N-(3-Methyl-benzo[b]thiophen-2-yl)-N-(3,4-difluoro-benzyl)-4-carboxy-benzenesulfonamide]",IC50,canine TRPM8 [1],1 nM
same,inhibition at 0.2 µM,canine TRPM8 [1]; [5],101%
same,inhibition in vivo at 30 mg/kg,"Male Sprague Dawley rats [3]; 2 h, HPbCD, pretreatment 2 hr, read-out: Percent Inhibition",43%
"O=C(O)c1ccc(S(=O)(=O)N(CCC2CC2)c2sc3ccccc3c2Br)cc1 [Compound 396, N-(3-Bromo-benzo[b]thiophen-2-yl)-N-(2-cyclopropylethyl)-4-carboxy-benzenesulfonamide]",IC50,canine TRPM8 [1],5 nM
same,inhibition at 0.2 µM,canine TRPM8 [1]; [5],101%
same,inhibition in vivo at 30 mg/kg,Male Sprague Dawley rats [3]; [10],50%

# Source: US9434711B2 (Janssen Pharmaceutica, NV, priority 2007, dated 2016)
